# In ChEMBL document CHEMBL1146493, “Effect of phenolic glycosides on Agrobacterium tumefaciens virH gene induction and plant transformation” (J Nat Prod, 2004):
# Activity calls are given as the source filed them. The calls are words filed in the database; no cut-off is given here.
# Key:
# Nicotiana tabacum [1] = assay: Increase in genetic transformation in tobacco leaf explant co-cultured with Agrobacterium tumefaciens A348 assessed as buds formation at 100 uM after 4 weeks; type: functional
# Nicotiana tabacum [2] = assay: Increase in genetic transformation in tobacco leaf explant co-cultured with Agrobacterium tumefaciens A348 assessed as callus formation at 100 uM after 4 weeks; type: functional
# Nicotiana tabacum [3] = assay: Increase in transformation frequency of tobacco leaf explant co-cultured with Agrobacterium tumefaciens A348 assessed as transgenic callus formation at 100 uM after 21 days; type: functional
# [4] = test system: Agrobacterium tumefaciens; assay: Induction of virH gene expression in Agrobacterium tumefaciens A348 overexpressing pSM219 virH::lacZ assessed as beta-galactosidase activity at 0.5 mM after 18 hrs relative to acetosyringone; type: functional
# [5] = test system: Agrobacterium tumefaciens; assay: Inhibition of virH gene expression in Agrobacterium tumefaciens A348 overexpressing pSM219 virH::lacZ assessed as beta-galactosidase activity at 100 uM after 18 hrs; type: functional, organism-based
# Nicotiana tabacum [6] = assay: Increase in transformation frequency of tobacco leaf explant co-cultured with Agrobacterium tumefaciens A348 assessed as explant survival at 100 uM after 21 days; type: functional
# [7] = test system: Agrobacterium tumefaciens; assay: Induction of virH gene expression in Agrobacterium tumefaciens A348 overexpressing pSM219 virH::lacZ assessed as beta-galactosidase activity at 1 mM after 18 hrs relative to acetosyringone; type: functional
# [8] = Toxicity in tobacco leaf explant co-cultured with Agrobacterium tumefaciens A348 assessed as mortality at 500 uM after 7 days; details: nicotiana tabacum, 168 h
# [9] = test system: Agrobacterium tumefaciens; assay: Toxicity in Agrobacterium tumefaciens A348 overexpressing pSM219 virH::lacZ assessed as […] at 5 mM after 18 hrs; type: organism-based; details: in vivo, 5000 µM
# [10] = Toxicity in tobacco leaf explant co-cultured with Agrobacterium tumefaciens A348 assessed as mortality at 2 mM within 3 to 4 days; details: nicotiana tabacum, 2000 µM
# [11] = Toxicity in tobacco leaf explant co-cultured with Agrobacterium tumefaciens A348 assessed as detrimental genetic transformation at 500 uM after 4 weeks; details: nicotiana tabacum, 672 h
# [12] = test system: Agrobacterium tumefaciens; assay: Induction of virH gene expression in Agrobacterium tumefaciens A348 overexpressing pSM219 virH::lacZ assessed as beta-galactosidase activity at 100 uM after 18 hrs; type: functional, organism-based
# [13] = test system: Agrobacterium tumefaciens; assay: Decrease in virH gene expression in Agrobacterium tumefaciens A348 overexpressing pSM219 virH::lacZ assessed as beta-galactosidase activity at >=250 uM after 18 hrs; type: functional, organism-based
# [14] = test system: Agrobacterium tumefaciens; assay: Induction of virH gene expression in Agrobacterium tumefaciens A348 overexpressing pSM219 virH::lacZ assessed as beta-galactosidase activity at 10 mM after 18 hrs relative to acetosyringone; type: functional, organism-based
SMILES,Activity (Nicotiana tabacum [1]),Activity (Nicotiana tabacum [2]),Activity (Nicotiana tabacum [3]),Activity [5],Activity (Nicotiana tabacum [6]),other results
COc1cc(C(=O)/C=C/c2ccc(O)cc2)cc(OC)c1O[C@@H]1O[C@H](CO)[C@@H](O)[C@H](O)[C@H]1O,Active,Active,–,–,–,–
COc1cc(C(C)=O)cc(OC)c1O[C@H]1O[C@H](CO)[C@@H](O)[C@H](O)[C@H]1O,Active,Active,Active,Active,Active,Activity [4]: 25%
COc1cc(C(=O)/C=C/c2ccc(O)cc2)cc(OC)c1O,Active,Active,–,–,–,–
COc1cc(C(C)=O)ccc1O[C@@H]1OC[C@@H](O)[C@H](O)[C@H]1O,–,–,–,Active,–,–
CC(=O)c1ccc(O[C@@H]2OC[C@@H](O)[C@H](O)[C@H]2O)cc1,–,–,–,Active,–,–
COc1cc(C(C)=O)cc(OC)c1O[C@@H]1OC[C@@H](O)[C@H](O)[C@H]1O,Active,Active,Active,Active,Active,Activity [4]: 25%; Activity [7]: 50%
COc1cc(C(C)=O)cc(OC)c1O [ACETOSYRINGONE],Active,Active,Active,–,Active,Activity [8]: Toxic; Activity [9]: Toxic; Activity [10]: Toxic; Activity [11]: Toxic; Activity [12]: Active; Activity [13]: Active
COc1cc(/C=C/C(C)=O)cc(OC)c1O,Active,Active,–,–,–,Activity [12]: Active
COc1cc(C(C)=O)cc(OC)c1O[C@@H]1O[C@H](CO)[C@@H](O)[C@H](O)[C@H]1O [GLUCOACETOSYRINGONE],Active,Active,Active,Active,Active,Activity [14]: Active; Activity [10]: Non-toxic; Activity [11]: Non-toxic
COc1cc(/C=C/C(C)=O)cc(OC)c1O[C@@H]1O[C@H](CO)[C@@H](O)[C@H](O)[C@H]1O,Active,Active,–,Active,–,–
